Source: patent US20210038587A1, “METHODS AND COMPOSITIONS FOR TREATING NON-ERK MAPK PATHWAY INHIBITOR-RESISTANT CANCERS” (BIOMED VALLEY DISCOVERIES, INC., priority 2013, published 2021)
≈ marks a conversion by molar mass, not a printed value. Marks after values point to notes of the source that are not given here.

Legend:
[1] = molecular target: CDK1/cyclinB (Homo sapiens, UniProt P06493); assay: Kinase counter-screen, Ki; format: biochemical; conditions: apparent Ki
Description: (§1) The ATP concentrations were approximately equal to the Km in all assays.

[2] = Phase I dose-escalation study: safety, DLT, MTD, RP2D; conditions: in vivo
Excerpt: Patients aged ≥18 years were eligible for participation if they had noncurable, histologically confirmed metastatic or advanced stage malignant tumors; an ECOG performance status of 0 or 1; adequate renal, hepatic, bone marrow, and cardiac function; and a life expectancy ≥3 months. Patients may have received up to 2 prior lines of chemotherapy for their metastatic disease. Exclusion criteria were known uncontrolled brain metastases; gastrointestinal conditions which could impair absorption of study medication; history or current evidence/risk of retinal vein occlusion or central serous retinopathy; and concurrent therapy with drugs known to be strong inhibitors of CYP1A2, CYP2D6, and CYP3A4 or strong inducers of CYP3A4. All participants provided informed consent prior to initiation of any study procedures.
The present invention presents data from an open-label, multicenter phase I study to assess the safety, pharmacokinetics, and pharmacodynamics of escalating doses of BVD-523 in patients with advanced malignancies.
Patients received BID oral doses until disease progression, unacceptable toxicity, or a clinical observation satisfying another withdrawal criterion. Dose escalations occurred in up to 100% increments in single-patient cohorts until 1 patient experienced a ≥Grade 2 toxicity (excluding alopecia or diarrhea). Cohorts were then expanded to at least 3 patients each and subsequent dose-escalation increments were reduced from up to 100% to a maximum of 50%. When at least 1 patient in a 3-patient cohort experienced a DLT, up to 3 additional patients were treated at this dose level. When more than 1 DLT occurred in ≤6 patients, this dose level was defined as the nontolerated dose and dose escalation was stopped. Intrapatient dose escalation was allowed, provided the patients receiving the highest current dose had been observed for at least 3 weeks and dose-limiting side effects were reported in fewer than 2 of 6 patients assigned to a given dose. Patients experiencing DLTs or unacceptable toxicity had their treatment interrupted until the toxicity returned to ≤Grade 1.
The RP2D could be as high as the MTD and was determined in discussion with the clinical investigators, the medical monitor, and the sponsor. Observations related to pharmacokinetics, pharmacodynamics, and any cumulative toxicity observed after multiple cycles were included in the rationale supporting the RP2D.
The severity of AEs were graded according to the National Cancer Institute Common Terminology Criteria for Adverse Events, Grading Scale, version 4.
Safety evaluations were conducted at baseline, on Days 8, 15, 22, 29, 36, and 43, and, in patients who continued treatment, every 3 weeks or if clinically indicated thereafter. Each evaluation included a physical examination and clinical laboratory studies. Electrocardiograms were repeated if clinically significant and at the discretion of the investigator. The investigators made judgments regarding whether or not AEs were related to study drug and followed up until resolution or stabilization, or the AE was judged to be no longer clinically significant.

[3] = tested on: PMA-stimulated RSK1 phosphorylation; assay: Ex vivo inhibition of PMA-stimulated RSK1 phosphorylation in human whole blood; format: cell-based
[4] = molecular target: ROCKII (Homo sapiens, UniProt O75116); assay: Kinase counter-screen, Ki; format: biochemical; conditions: apparent Ki
Description: as §1

[5] = tested on: RKO colorectal cell line; assay: Western blot of nuclear and cytoplasmic fractions; format: cell-based; conditions: versus DMSO
Description: For Western blot analysis, A375 cells were seeded onto 10 cm dishes in Dulbecco's Modified Eagle's Medium plus 10% (v/v) FBS. Cells were allowed to adhere overnight prior to the addition of test compound or vehicle. For experiments with RKO cells, these cells were seeded in 6-well plates or 10 cm dishes with McCoy's 5A+10% (v/v) FBS. Cells were then treated at the desired concentration and duration. Cells were harvested by trypsinization, pelleted, and snap frozen. Lysates were prepared with RIPA buffer supplemented with protease and phosphatase inhibitor cocktails (Roche), clarified by centrifugation at 11,000 rpm for 10 minutes, and quantitated by bicinchoninic acid assay. Samples were resolved by SDS-PAGE, blotted onto polyvinylidene difluoride membranes, and probed using antibodies (i.e., pRB [Ser780], cat. no. 9307; CCND1, cat. no. ab6152; BCL-xL, cat. no. 2762; PARP, cat. no. 9542; DUSP6, cat. no. 3058S) directed to the indicated targets.
In resting cells, ERK1/2 localizes to the cytoplasm, and once stimulated pERK1/2 migrates to target organelles, particularly the nucleus where transcriptional targets are activated (Wainstein et al. 2016). In DMSO-treated control cells, pERK1/2 is evident in both nuclear and cytoplasmic fractions, which is likely reflective of MAPK pathway activity due to the presence of BRAF^V600E in this cell line.

CDK1/cyclinB, sequence (P06493 whole entry, species assumed): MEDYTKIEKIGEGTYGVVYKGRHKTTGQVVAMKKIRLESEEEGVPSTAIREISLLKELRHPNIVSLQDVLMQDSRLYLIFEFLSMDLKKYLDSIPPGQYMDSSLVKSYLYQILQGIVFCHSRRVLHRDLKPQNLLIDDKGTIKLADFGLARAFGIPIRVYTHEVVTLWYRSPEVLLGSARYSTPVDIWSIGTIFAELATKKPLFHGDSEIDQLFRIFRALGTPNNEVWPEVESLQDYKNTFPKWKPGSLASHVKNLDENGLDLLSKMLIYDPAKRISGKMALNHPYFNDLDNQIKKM
CDK1/cyclinB, sequence (P14635 whole entry partner, species assumed): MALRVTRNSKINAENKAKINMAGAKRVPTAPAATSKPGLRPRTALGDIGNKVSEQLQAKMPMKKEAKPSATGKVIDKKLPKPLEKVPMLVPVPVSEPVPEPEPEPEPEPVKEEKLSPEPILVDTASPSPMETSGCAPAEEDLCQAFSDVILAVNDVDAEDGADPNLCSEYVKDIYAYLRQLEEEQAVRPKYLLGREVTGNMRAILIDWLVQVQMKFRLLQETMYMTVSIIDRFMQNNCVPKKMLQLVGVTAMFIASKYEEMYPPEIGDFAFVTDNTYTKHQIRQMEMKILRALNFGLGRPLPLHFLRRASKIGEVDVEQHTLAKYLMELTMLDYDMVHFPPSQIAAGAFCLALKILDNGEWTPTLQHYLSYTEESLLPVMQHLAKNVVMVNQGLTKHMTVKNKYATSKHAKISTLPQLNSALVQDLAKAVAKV
ROCKII, sequence (O75116 whole entry, species assumed): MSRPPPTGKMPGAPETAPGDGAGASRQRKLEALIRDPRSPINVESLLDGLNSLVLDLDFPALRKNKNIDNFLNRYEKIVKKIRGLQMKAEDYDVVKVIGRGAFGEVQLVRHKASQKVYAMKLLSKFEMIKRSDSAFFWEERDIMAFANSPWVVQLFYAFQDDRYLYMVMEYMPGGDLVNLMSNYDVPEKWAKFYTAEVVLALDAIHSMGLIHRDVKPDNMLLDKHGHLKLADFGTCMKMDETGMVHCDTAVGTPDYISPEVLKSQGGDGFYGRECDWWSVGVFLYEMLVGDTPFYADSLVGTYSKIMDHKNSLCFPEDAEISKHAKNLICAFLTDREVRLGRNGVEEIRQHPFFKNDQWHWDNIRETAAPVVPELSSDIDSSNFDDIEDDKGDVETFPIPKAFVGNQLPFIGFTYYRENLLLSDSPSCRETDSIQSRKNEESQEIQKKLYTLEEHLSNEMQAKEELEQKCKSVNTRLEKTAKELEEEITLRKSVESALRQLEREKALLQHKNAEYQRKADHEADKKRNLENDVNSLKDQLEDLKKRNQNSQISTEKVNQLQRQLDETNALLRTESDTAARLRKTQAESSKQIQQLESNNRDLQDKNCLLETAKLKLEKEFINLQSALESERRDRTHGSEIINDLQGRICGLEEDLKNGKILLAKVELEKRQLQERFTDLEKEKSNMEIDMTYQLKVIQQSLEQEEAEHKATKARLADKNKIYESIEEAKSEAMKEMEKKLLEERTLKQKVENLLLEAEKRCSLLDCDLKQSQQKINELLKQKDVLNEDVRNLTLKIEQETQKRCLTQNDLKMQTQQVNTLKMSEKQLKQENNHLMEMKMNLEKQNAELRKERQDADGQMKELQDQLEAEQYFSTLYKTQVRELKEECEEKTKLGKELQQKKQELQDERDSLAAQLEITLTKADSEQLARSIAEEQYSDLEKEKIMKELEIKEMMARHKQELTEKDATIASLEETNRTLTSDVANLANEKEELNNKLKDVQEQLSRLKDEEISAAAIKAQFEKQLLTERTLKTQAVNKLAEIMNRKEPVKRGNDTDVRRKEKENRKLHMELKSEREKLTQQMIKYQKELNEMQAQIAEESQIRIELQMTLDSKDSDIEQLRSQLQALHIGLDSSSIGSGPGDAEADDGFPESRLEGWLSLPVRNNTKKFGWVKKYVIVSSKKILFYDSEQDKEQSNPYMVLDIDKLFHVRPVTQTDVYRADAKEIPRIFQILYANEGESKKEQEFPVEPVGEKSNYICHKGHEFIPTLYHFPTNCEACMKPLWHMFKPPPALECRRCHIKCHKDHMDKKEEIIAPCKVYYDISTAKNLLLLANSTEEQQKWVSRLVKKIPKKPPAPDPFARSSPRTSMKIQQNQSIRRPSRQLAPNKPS

SMILES: CC(C)Nc1cc(-c2c[nH]c(C(=O)N[C@H](CO)c3cccc(Cl)c3)c2)c(Cl)cn1 [BVD-523]
- Ki [1]: 70 nM
- Anemia, Any grade ([2]; human): 5 (19) n (%)
- Anemia, Grade 1 or 2 ([2]; human): 3 (11) n (%)
- Anemia, Grade 3 ([2]; human): 2^ (7) n (%)
- Anorexia, Any grade ([2]; human): 6 (22) n (%)
- Anorexia, Grade 1 or 2 ([2]; human): 6 (22) n (%)
- Anorexia, Grade 3 ([2]; human): 0 n (%)
- Blurry/dimmed vision, Any grade ([2]; human): 3 (11) n (%)
- Blurry/dimmed vision, Grade 1 or 2 ([2]; human): 3 (11) n (%)
- Blurry/dimmed vision, Grade 3 ([2]; human): 0 n (%)
- Constipation, Any grade ([2]; human): 3 (11) n (%)
- Constipation, Grade 1 or 2 ([2]; human): 3 (11) n (%)
- Constipation, Grade 3 ([2]; human): 0 n (%)
- Dehydration, Any grade ([2]; human): 5 (19) n (%)
- Dehydration, Grade 1 or 2 ([2]; human): 3 (11) n (%)
- Dehydration, Grade 3 ([2]; human): 2^ (7) n (%)
- Diarrhea, Any grade ([2]; human): 16 (59) n (%)
- Diarrhea, Grade 1 or 2 ([2]; human): 12 (44) n (%)
- Diarrhea, Grade 3 ([2]; human): 4^ (15) n (%)
- Fatigue, Any grade ([2]; human): 17 (63) n (%)
- Fatigue, Grade 1 or 2 ([2]; human): 16 (59) n (%)
- Fatigue, Grade 3 ([2]; human): 1^ (4) n (%)
- Fever, Any grade ([2]; human): 3 (11) n (%)
- Fever, Grade 1 or 2 ([2]; human): 3 (11) n (%)
- Fever, Grade 3 ([2]; human): 0 n (%)
- Grade 3 treatment-related diarrhea ([2]; human): 15%
- Grade 3 treatment-related increased liver function tests ([2]; human): 11%
- Increased LFTs (ALT and AST), Any grade ([2]; human): 4 (14) n (%)
- Increased LFTs (ALT and AST), Grade 1 or 2 ([2]; human): 1 (4) n (%)
- Increased LFTs (ALT and AST), Grade 3 ([2]; human): 3^ (11) n (%)
- Increased creatinine, Any grade ([2]; human): 5 (19) n (%)
- Increased creatinine, Grade 1 or 2 ([2]; human): 4 (15) n (%)
- Increased creatinine, Grade 3 ([2]; human): 1^ (4) n (%)
- MTD ([2]; human): 600 mg BID
- Nausea, Any grade ([2]; human): 14 (52) n (%)
- Nausea, Grade 1 or 2 ([2]; human): 14 (52) n (%)
- Nausea, Grade 3 ([2]; human): 0 n (%)
- Peripheral edema, Any grade ([2]; human): 4 (15) n (%)
- Peripheral edema, Grade 1 or 2 ([2]; human): 4 (15) n (%)
- Peripheral edema, Grade 3 ([2]; human): 0 n (%)
- Pruritus, Any grade ([2]; human): 6 (22) n (%)
- Pruritus, Grade 1 or 2 ([2]; human): 6 (22) n (%)
- Pruritus, Grade 3 ([2]; human): 0 n (%)
- RP2D ([2]; human): 600 mg BID
- Rash, Any grade ([2]; human): 20 (74) n (%)
- Rash, Grade 1 or 2 ([2]; human): 18 (67) n (%)
- Rash, Grade 3 ([2]; human): 2^b (7) n (%)
- Vomiting, Any grade ([2]; human): 8 (30) n (%)
- Vomiting, Grade 1 or 2 ([2]; human): 7 (26) n (%)
- Vomiting, Grade 3 ([2]; human): 1^ (4) n (%)
- dose reductions resulting from AEs ([2]; human): 3 patients
- patients with Grade 4 or 5 AEs possibly or definitely related ([2]; human): ^aNo patients experienced Grade 4 or 5 AEs that were possibly or definitely related to BVD-523 treatment.
- patients with treatment-related AEs of any grade ([2]; human): 26 of 27
- patients with treatment-related Grade 3 events ([2]; human): 13 of 27
- related central serous retinopathy events ([2]; human): ^cOne Grade 1 event of related central serous retinopathy.
- total serious AEs (SAEs) ([2]; human): 28
- treatment-related diarrhea ([2]; human): 52%
- treatment-related fatigue ([2]; human): 59%
- treatment-related nausea ([2]; human): 52%
- treatment-related rash (predominately acneiform) ([2]; human): 70%
- patients with serious AEs (SAEs) [2]: Fourteen
- EC50 ([3]; Homo sapiens, human whole blood (HWB), read-out: EC50 based on the ex vivo whole blood assay): ~0.2 µg/mL (≈ 0.462 µM)
- inhibition at 10 µM ([3]; Homo sapiens, read-out: maximum inhibition of RSK phosphorylation): 75.8 ± 2.7%
- IC50 ([3]; Homo sapiens, whole blood from healthy volunteers, read-out: mean IC50, PMA-stimulated RSK phosphorylation): 461 ± 20 nM
- EC50 based on the ex vivo whole blood assay ([3]; human whole blood (HWB)): 0.2 µg/mL (≈ 0.462 µM)
- Ki [4]: 270 nM

SMILES: O=C(Nc1ccc2[nH]nc(-c3ccncc3)c2c1)[C@@H]1CCN(CC(=O)N2CCN(c3ccc(-c4ncccn4)cc3)CC2)C1 [SCH772984]
- pERK1/2 in nuclear and cytoplasmic fractions [5]: inhibited phosphorylation of ERK1/2 and RSK
